Data from US20240376094A2, “SELECTIVE BCL-XL PROTAC COMPOUNDS AND METHODS OF USE” (Les Laboratoires Servier, priority 2021, published 2024).

Columns and labels:
Assay type in all cases: cell-based
Bcl-xL = target: T1, Bcl-xL (Homo sapiens, UniProt Q07817); experiment: HCT116 Bcl-xL degradation, capillary-based immunoassay (WES); conditions: for DC50: HCT116, 24 h, 9-point serial dilution; for remaining activity at 0.01 µM / remaining activity at 0.1 µM: HCT-116, 24 h, % of untreated cells; for remaining activity at 0.01 µM: HCT116, 10 nM; for remaining activity at 0.1 µM: HCT116, 100 nM
T1 construct: Measured levels of Bcl-xL protein of HCT116 cells treated with the tested compounds; host or cells: HCT116
T1 sequence (Q07817 whole entry): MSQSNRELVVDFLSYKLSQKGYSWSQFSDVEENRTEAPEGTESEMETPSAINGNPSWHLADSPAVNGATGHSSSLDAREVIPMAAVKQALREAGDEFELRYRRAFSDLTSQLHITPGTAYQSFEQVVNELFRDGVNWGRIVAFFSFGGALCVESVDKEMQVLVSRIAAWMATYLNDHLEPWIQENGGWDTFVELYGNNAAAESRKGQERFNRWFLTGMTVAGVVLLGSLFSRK
How it was run: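 Bcl-xL protein level by capillary WES immunoassay in HCT116 lysates, as % of untreated after cofilin normalization. Compound exposure was 24 h at 10 and 100 nM and/or a 9-point series, in quadruplicate. Four-parameter fitting gave the DC50.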

HiBiT-tagged BCL-xL = target: T2, HiBiT-tagged BCL-xL (Homo sapiens, UniProt Q07817); experiment: NCI-H1650 BCL-xL protein levels, Nano-Glo HiBiT Lytic Detection; conditions: NCI-H1650 expressing HiBiT-tagged BCL-xL, overnight incubation, read-out: Bcl-xl HIBIT NCIH1650 DC50
T2 construct: expressed in transfected cells; host or cells: NCI-H1650 (ATCC No. CRL-5883), engineered HiBiT cell line
T2 sequence (Q07817 whole entry): as above
How it was run: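 HiBiT luminescence after cell lysis with LgBiT/furimazine reagent reported BCL-xL levels, expressed relative to untreated wells and fitted with a four-parameter logistic equation. Engineered NCI-H1650 cells were exposed overnight at 37° C to compound at final 0.508 nM-10 μM (10 points, triplicate plates).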

[1] = system: EBC-1 lung cancer cell line; experiment: EBC-1 cell proliferation, CellTiter-Glo assay; conditions: Homo sapiens, 120 h; Ebc-1 cell viability, CTG assay, 5 days of treatment; read-out: CTG 5 day Ebc1 GI50
How it was run: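 CellTiter-Glo read-out after 5-day compound treatment, normalised to untreated cells, with GI50 derived by four-parameter logistic regression. Ten concentrations spanning 0.508 nM–10 μM were added to 1000 EBC-1 cells per well the day after seeding. Assays required at least one cell doubling versus Day 0.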

MOLT-4 cells = experiment: MOLT-4 cell viability, MTT assay; conditions: Homo sapiens, MOLT-4, 48 h
How it was run: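 MOLT-4 cells in RPMI 1640 with 10% FBS were exposed to compounds for 48 h at 9 concentrations (3.16-fold dilutions, triplicates). After 4 h with MTT and overnight SDS/HCl solubilisation, absorbance was read at 540 nm. IC50 came from four-parameter fits versus control, as the mean of ≥2 independent experiments.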

Row | SMILES | DC50 (Bcl-xL) | remaining activity at 0.01 µM (Bcl-xL) | remaining activity at 0.1 µM (Bcl-xL) | DC50 (HiBiT-tagged BCL-xL) | GI50 [1] | IC50 (MOLT-4 cells)
1 | Cc1ncsc1-c1ccc([C@H](C)NC(=O)[C@@H]2C[C@@H](O)CN2C(=O)[C@@H](NC(=O)CCCCCCCCCCCN(C)CCOC23CC4(C)CC(C)(CC(Cn5ncc(-c6ccc(N7CCCc8c7nnc(Nc7nc9ccccc9s7)c8C)nc6C(=O)O)c5C)(C4)C2)C3)C(C)(C)C)cc1 [Example 2, 6-[3-(1,3-benzothiazol-2-ylamino)-4-methyl-6,7-dihydro-5H-pyrido[2,3-c]pyridazin-8-yl]-3-[1-[[3-[2-[[12-[[(1S)-1-[(2S,4R)-4-hydroxy-2-[[(1S)-1-[4-(4-methylthiazol-5-yl)phenyl]ethyl]carbamoyl]pyrrolidine-1-carbonyl]-2,2-dimethyl-propyl]amino]-12-oxo-dodecyl]-methyl-amino]ethoxy]-5,7-dimethyl-1-adamantyl]methyl]-5-methyl-pyrazol-4-yl]pyridine-2-carboxylic acid] | 0.286 nM | 26% | 11% | 1 nM | 13 nM | 1.06 nM
2 | Cc1ncsc1-c1ccc([C@H](C)NC(=O)[C@@H]2C[C@@H](O)CN2C(=O)[C@@H](NC(=O)CCCCCCCCCCN(C)CCOC23CC4(C)CC(C)(CC(Cn5ncc(-c6ccc(N7CCCc8c7nnc(Nc7nc9ccccc9s7)c8C)nc6C(=O)O)c5C)(C4)C2)C3)C(C)(C)C)cc1 [Example 135, 6-[3-(1,3-benzothiazol-2-ylamino)-4-methyl-6,7-dihydro-5H-pyrido[2,3-c]pyridazin-8-yl]-3-[1-[[3-[2-[[11-[[(1S)-1-[(2S,4R)-4-hydroxy-2-[[(1S)-1-[4-(4-methylthiazol-5-yl)phenyl]ethyl]carbamoyl]pyrrolidine-1-carbonyl]-2,2-dimethyl-propyl]amino]-11-oxo-undecyl]-methyl-amino]ethoxy]-5,7-dimethyl-1-adamantyl]methyl]-5-methyl-pyrazol-4-yl]pyridine-2-carboxylic acid] | 0.978 nM |  |  | 1 nM | 4 nM | 3.51 nM
3 | Cc1ncsc1-c1ccc(CNC(=O)[C@@H]2C[C@@H](O)CN2C(=O)[C@@H](NC(=O)CCCCC(=O)N2CCN(CC#Cc3ccc(OCCCc4sc(N5CCCc6c5nnc(Nc5nc7ccccc7s5)c6C)nc4C(=O)O)c(F)c3)CC2)C(C)(C)C)cc1 [Example 19, 2-[3-(1,3-benzothiazol-2-ylamino)-4-methyl-6,7-dihydro-5H-pyrido[2,3-c]pyridazin-8-yl]-5-[3-[2-fluoro-4-[3-[4-[6-[[(1S)-1-[(2S,4R)-4-hydroxy-2-[[4-(4-methylthiazol-5-yl)phenyl]methylcarbamoyl]pyrrolidine-1-carbonyl]-2,2-dimethyl-propyl]amino]-6-oxo-hexanoyl]piperazin-1-yl]prop-1-ynyl]phenoxy]propyl]thiazole-4-carboxylic acid] |  | 104% | 88% | > 1670 nM | 25 nM | 13.2 nM
4 | Cc1ncsc1-c1ccc(CNC(=O)[C@@H]2C[C@@H](O)CN2C(=O)[C@@H](NC(=O)C2(F)CC2)C(C)(C)C)c(OCCCCCCCCCCCCN(C)CCOC23CC4(C)CC(C)(CC(Cn5ncc(-c6ccc(N7CCCc8c7nnc(Nc7nc9ccccc9s7)c8C)nc6C(=O)O)c5C)(C4)C2)C3)c1 [Example 139, 6-[3-(1,3-benzothiazol-2-ylamino)-4-methyl-6,7-dihydro-5H-pyrido[2,3-c]pyridazin-8-yl]-3-[1-[[3-[2-[12-[2-[[[(2S,4R)-1-[(2S)-2-[(1-fluorocyclopropanecarbonyl)amino]-3,3-dimethyl-butanoyl]-4-hydroxy-pyrrolidine-2-carbonyl]amino]methyl]-5-(4-methylthiazol-5-yl)phenoxy]dodecyl-methyl-amino]ethoxy]-5,7-dimethyl-1-adamantyl]methyl]-5-methyl-pyrazol-4-yl]pyridine-2-carboxylic acid] | 0.397 nM |  |  | 3 nM | 7 nM | 3.52 nM
